From patent publication US20200323888A1, “INHIBITORS” (VESTLANDETS INNOVASJONSSELSKAP AS, priority 2017, published 2020)
Square brackets hold non-standard residues; d marks the D form. Primed or numbered codes have the meaning given here. Ends that are not written are not given here. Nle = CCCC[C@H](N)C(=O)O; Ac′ = acetamide linker; CoA = coenzyme A

Experiments:
Naa80 = biological target: T1, Naa80 (Homo sapiens, UniProt Q93015); test: Nt-acetylation inhibitor assay for Naa80; type: biochemical; conditions: for IC50: Naa80
T1 construct: The PCR product containing the CDS was inserted into the TOPO TA vector; made in house; host or cells: E. coli BL21 Star (DE3)
T1 sequence (Q93015 1-308 isoform Q93015-2): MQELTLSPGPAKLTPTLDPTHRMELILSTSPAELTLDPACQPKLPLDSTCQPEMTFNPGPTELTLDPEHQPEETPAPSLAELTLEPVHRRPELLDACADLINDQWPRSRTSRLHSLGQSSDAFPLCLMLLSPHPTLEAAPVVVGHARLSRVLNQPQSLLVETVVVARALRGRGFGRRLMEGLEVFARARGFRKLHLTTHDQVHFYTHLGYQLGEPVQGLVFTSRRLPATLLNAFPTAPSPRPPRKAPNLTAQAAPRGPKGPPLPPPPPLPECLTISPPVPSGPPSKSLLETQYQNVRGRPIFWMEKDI
Experimental: FIG. 10: (A) IC50 values for inhibitors measured in an Nt-acetylation inhibitor assay for Naa80. (B) Ki-values for CoA-Ac-DDDI-NH2 (SEQ ID NO: 6) for different human NATs measured in an Nt-acetylation inhibitor assay. All reactions were performed at least three times and in triplicate; errors bars represent standard deviation of each measurement.
The IC50 values for these compounds were tested as described in Foyn H, et al. (2013) “Design, Synthesis, and Kinetic Characterization of Protein N-Terminal Acetyltransferase Inhibitors”. ACS Chem Biol 8:1121-1127; and Foyn H, et al. (2017) “DTNB-Based quantification of in vitro enzymatic N-terminal acetyltransferase activity”, Methods Mol. Biol. 1574:9-15. Briefly, a colorimetric acetylation assay, 5,5′-dithiobis-(2-nitrobenzoic acid) (DTNB) assay was used to measure the catalytic activity of NATs after incubation with NAT inhibitors. In the DTNB assay, thiols present in the enzymatic product, CoA, cleaves DTNB and produces 2-nitro-5-thiobenzoate (NTB-), which absorbs light with a wavelength of 412 nm. NTB- forms in a 1:1 molar ratio to the thiol groups present in the sample. Therefore, NTB- was quantified by measuring the absorbance at 412 nm and indirectly measures peptide Nt-acetylation. […] After 30 min-60 min incubation at 37° C., the enzyme activity was quenched with quenching buffer (3.2 M guanidinium-HCl, 100 mM sodium phosphate dibasic pH 6.8). Triplicates were run for all positive samples, while negative controls were duplicated. As a negative control, reactions without enzyme were incubated at 37° C. before the reaction was quenched and added enzyme. In order to measure CoA production, 2 mM DTNB (dissolved in 100 mM sodium phosphate dibasic pH 6.8 and 10 mM EDTA) was added to the quenched reaction and the absorbance at 412 nm was measured with a spectrophotometer (Epoc). Background absorbance (determined in negative controls) was subtracted from the absorbance determined in each individual reaction. Thiophenolate production was quantified assuming ε=13.7×103 M−1 cm−1. For NatA and NatB enzyme complex inhibition, immunoprecipitation was performed using Naa15 ab (custom made, Arnesen T, Anderson D, Baldersheim C, Lanotte M, Varhaug J E, Lillehaug J R. (2005) Identification and characterization of the human ARD1-NATH protein acetyltransferase complex. Biochemical J 386(Pt 3):433-43.) or Naa20 ab (Nat5, abnova) respectively and protein A/G magnetic agarose beads (Millipore). A similar Nt-acetylation reaction was performed as previously described and the enzymatic activity was quenched with a final concentration of 1% TFA and analyzed by HPLC (Evjenth R, Van Damme P, Gevaert K, Arnesen T (2013) HPLC-based Quantification of in vitro N-terminal Acetylation. Methods Mol Biol 981:95-102.).
We then pursued Naa80 bisubstrate analogue inhibitors based on the results of the substrate screening and the sequences of the cellular substrates processed β- and γ-actin. We synthesized bisubstrate conjugates of Coenzyme A coupled to the tetrapeptides MDEL-NH2 (SEQ ID NO: 8), DDDI-NH2 (SEQ ID NO: 6), EEEI-NH2 (SEQ
ID NO: 7), and MLGT-NH2 (SEQ ID NO: 52) via an acetamide (Ac) linker.
The following additional Naa80 bisubstrate analogue inhibitors were produced and tested as described above: […]

Naa10 = biological target: T2, Naa10 (Homo sapiens, UniProt P41227); test: Nt-acetylation inhibitor assay (DTNB), Naa10; type: biochemical; conditions: selectivity, panel of human NATs
T2 sequence (P41227 1-235): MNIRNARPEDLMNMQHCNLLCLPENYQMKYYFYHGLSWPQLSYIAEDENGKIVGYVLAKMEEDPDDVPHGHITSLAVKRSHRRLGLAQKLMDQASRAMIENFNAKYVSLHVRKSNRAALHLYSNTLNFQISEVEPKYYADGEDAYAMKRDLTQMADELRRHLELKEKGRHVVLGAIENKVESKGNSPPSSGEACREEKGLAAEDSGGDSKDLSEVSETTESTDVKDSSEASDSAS
Experimental: The IC50 values for these compounds were tested as described in Foyn H, et al. (2013) “Design, Synthesis, and Kinetic Characterization of Protein N-Terminal Acetyltransferase Inhibitors”. ACS Chem Biol 8:1121-1127; and Foyn H, et al. (2017) “DTNB-Based quantification of in vitro enzymatic N-terminal acetyltransferase activity”, Methods Mol. Biol. 1574:9-15. Briefly, a colorimetric acetylation assay, 5,5′-dithiobis-(2-nitrobenzoic acid) (DTNB) assay was used to measure the catalytic activity of NATs after incubation with NAT inhibitors. […] Therefore, NTB- was quantified by measuring the absorbance at 412 nm and indirectly measures peptide Nt-acetylation. […] In order to measure CoA production, 2 mM DTNB (dissolved in 100 mM sodium phosphate dibasic pH 6.8 and 10 mM EDTA) was added to the quenched reaction and the absorbance at 412 nm was measured with a spectrophotometer (Epoc). Background absorbance (determined in negative controls) was subtracted from the absorbance determined in each individual reaction. Thiophenolate production was quantified assuming ε=13.7×103 M−1 cm−1. […] A similar Nt-acetylation reaction was performed as previously described and the enzymatic activity was quenched with a final concentration of 1% TFA and analyzed by HPLC (Evjenth R, Van Damme P, Gevaert K, Arnesen T (2013) HPLC-based Quantification of in vitro N-terminal Acetylation. Methods Mol Biol 981:95-102.). […]

NatA = biological target: T3, NatA (Homo sapiens, UniProt P41227); test: Nt-acetylation inhibitor assay, immunoprecipitated NatA complex, HPLC quantification; type: biochemical; conditions: inhibitors tested against NatA; all compounds with C-terminal amide
T3 construct: endogenous in cells
T3 sequence (P41227 1-235): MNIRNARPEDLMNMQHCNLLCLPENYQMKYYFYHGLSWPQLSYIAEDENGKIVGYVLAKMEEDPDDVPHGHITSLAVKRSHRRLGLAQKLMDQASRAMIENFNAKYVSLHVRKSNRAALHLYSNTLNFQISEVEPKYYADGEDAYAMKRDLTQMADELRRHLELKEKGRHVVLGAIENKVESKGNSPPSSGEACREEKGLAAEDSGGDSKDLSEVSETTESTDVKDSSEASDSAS
T3 sequence (Q9BXJ9 1-866 partner): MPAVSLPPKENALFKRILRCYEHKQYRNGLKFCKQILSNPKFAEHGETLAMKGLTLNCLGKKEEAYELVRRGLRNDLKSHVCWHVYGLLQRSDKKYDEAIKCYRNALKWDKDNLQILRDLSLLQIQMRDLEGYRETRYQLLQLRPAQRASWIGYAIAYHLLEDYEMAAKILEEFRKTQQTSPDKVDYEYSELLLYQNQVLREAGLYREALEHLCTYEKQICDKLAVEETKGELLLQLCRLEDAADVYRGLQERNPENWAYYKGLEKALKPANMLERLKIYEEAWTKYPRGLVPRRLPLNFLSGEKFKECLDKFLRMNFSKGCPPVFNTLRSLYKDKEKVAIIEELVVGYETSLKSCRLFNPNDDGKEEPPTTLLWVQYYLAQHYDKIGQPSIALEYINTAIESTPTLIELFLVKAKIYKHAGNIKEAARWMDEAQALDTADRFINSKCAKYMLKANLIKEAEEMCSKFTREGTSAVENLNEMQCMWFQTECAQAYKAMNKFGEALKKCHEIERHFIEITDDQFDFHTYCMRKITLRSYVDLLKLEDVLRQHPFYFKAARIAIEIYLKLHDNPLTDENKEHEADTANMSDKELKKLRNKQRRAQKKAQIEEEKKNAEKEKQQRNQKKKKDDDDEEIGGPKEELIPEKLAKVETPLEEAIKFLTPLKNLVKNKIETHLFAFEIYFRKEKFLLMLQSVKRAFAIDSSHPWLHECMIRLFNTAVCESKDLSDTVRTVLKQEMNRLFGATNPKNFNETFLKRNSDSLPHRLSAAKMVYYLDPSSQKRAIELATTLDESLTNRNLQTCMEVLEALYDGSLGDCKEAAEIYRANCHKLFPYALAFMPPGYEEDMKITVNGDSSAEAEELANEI
Experimental: The IC50 values for these compounds were tested as described in Foyn H, et al. (2013) “Design, Synthesis, and Kinetic Characterization of Protein N-Terminal Acetyltransferase Inhibitors”. ACS Chem Biol 8:1121-1127; and Foyn H, et al. (2017) “DTNB-Based quantification of in vitro enzymatic N-terminal acetyltransferase activity”, Methods Mol. Biol. 1574:9-15. Briefly, a colorimetric acetylation assay, 5,5′-dithiobis-(2-nitrobenzoic acid) (DTNB) assay was used to measure the catalytic activity of NATs after incubation with NAT inhibitors. In the DTNB assay, thiols present in the enzymatic product, CoA, cleaves DTNB and produces 2-nitro-5-thiobenzoate (NTB-), which absorbs light with a wavelength of 412 nm. NTB- forms in a 1:1 molar ratio to the thiol groups present in the sample. Therefore, NTB- was quantified by measuring the absorbance at 412 nm and indirectly measures peptide Nt-acetylation. Recombinant purified NAT enzyme was mixed with different substrate peptides (300 uM, custom-made) and Ac-CoA (300 uM) in acetylation buffer (50 mM Tris/HEPES pH 8.5-7.4, 100 mM NaCl, 10% glycerol and 0.2 mM EDTA) and with inhibitor concentration (0-500 uM). After 30 min-60 min incubation at 37° C., the enzyme activity was quenched with quenching buffer (3.2 M guanidinium-HCl, 100 mM sodium phosphate dibasic pH 6.8). Triplicates were run for all positive samples, while negative controls were duplicated. As a negative control, reactions without enzyme were incubated at 37° C. before the reaction was quenched and added enzyme. In order to measure CoA production, 2 mM DTNB (dissolved in 100 mM sodium phosphate dibasic pH 6.8 and 10 mM EDTA) was added to the quenched reaction and the absorbance at 412 nm was measured with a spectrophotometer (Epoc). Background absorbance (determined in negative controls) was subtracted from the absorbance determined in each individual reaction. Thiophenolate production was quantified assuming ε=13.7×103 M−1 cm−1. […] A similar Nt-acetylation reaction was performed as previously described and the enzymatic activity was quenched with a final concentration of 1% TFA and analyzed by HPLC (Evjenth R, Van Damme P, Gevaert K, Arnesen T (2013) HPLC-based Quantification of in vitro N-terminal Acetylation. Methods Mol Biol 981:95-102.).
In order to ensure selectivity towards NatA, the CoA-Ac-SSNIeP (SEQ ID NO: 4) was tested against other NATs. Using the Cheng-Prusoff equation for competitive inhibitors, the dissociation constant, Ki, was calculated from IC50 values and [S]/Km ratios for all the NATs.

zebrafish embryos = test: Phenotype after injection into zebrafish embryos; type: in vivo; conditions: injected into zebrafish embryos; compared with reference inhibitor
Source text: A norleucine (Nle) residue was therefore tried in place of methionine in order to try to circumvent the synthesis problem.

MDEL24 = biological target: T4, MDEL24
T4 chain: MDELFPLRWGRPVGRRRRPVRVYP

MDDD24 = biological target: T5, MDDD24
T5 chain: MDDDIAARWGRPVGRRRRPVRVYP

DDDI24 = biological target: T6, DDDI24
T6 chain: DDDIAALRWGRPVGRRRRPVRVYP

CC[C@H](C)[C@H](NC(=O)[C@H](CC(=O)O)NC(=O)[C@H](CC(=O)O)NC(=O)[C@H](CC(=O)O)NC(=O)CSCCNC(=O)CCNC(=O)C(O)C(C)(C)COP(=O)(O)OP(=O)(O)OCC1OC(n2cnc3c(N)ncnc32)C(O)C1OP(=O)(O)O)C(N)=O (some centres unmarked) [CoA-Ac-DDDI-NH2]
IC50 (Naa80): 0.38 µM | more potent Naa80 inhibitor than CoA-Ac-EEEI-NH2 (Naa80; ratio of IC50 values): 3 fold | more potent Naa80 inhibitor than CoA-Ac-MDEL-NH2 (Naa80; ratio of IC50 values): 3.3 fold | reduced potency for Naa10 compared to Naa80 (Naa10): 88 fold

CCCC[C@H](NC(=O)[C@H](CO)NC(=O)[C@@H]1CCCN1C(=O)CSCCNC(=O)CCNC(=O)C(O)C(C)(C)COP(=O)(O)OP(=O)(O)OCC1OC(n2cnc3c(N)ncnc32)C(O)C1OP(=O)(O)O)C(=O)N1CCC[C@H]1C(N)=O (some centres unmarked) [CoA-Ac-PS(Nle)P]
IC50 (NatA): > 1000 µM

CoA-Ac-MLGT-NH2 ({CoA-Ac′}-MLGT-NH2)
inhibition of Naa80 (Naa80; at the highest concentration tested of 1000 μM): did not show detectable inhibition

CC(C)C[C@H](NC(=O)[C@H](CCC(=O)O)NC(=O)[C@H](CCC(=O)O)NC(=O)[C@H](CCC(=O)O)NC(=O)CSCCNC(=O)CCNC(=O)C(O)C(C)(C)COP(=O)(O)OP(=O)(O)OCC1OC(n2cnc3c(N)ncnc32)C(O)C1OP(=O)(O)O)C(N)=O (some centres unmarked) [EEEL]
IC50 (Naa80): 1.16 µM

CoA-Ac-SSNlePK-folic acid: CoA-Ac-SS(Nle)PK (SEQ ID NO: 23) carrying folic acid as targeting moiety ({CoA-Ac}-SS[Nle]PK; not fully specified (C-terminus); also: folic acid conjugate as targeting moiety, site not given here)
phenotype in zebrafish (zebrafish embryos): comparable phenotypes as CoA-Ac-SSNleP-NH2

B1: MBP-HishNAA80 fusion protein (MBP-Naa80) (protein)
chain: MQELTLSPGPAKLTPTLDPTHRMELILSTSPAELTLDPACQPKLPLDSTCQPEMTFNPGPTELTLDPEHQPEETPAPSLAELTLEPVHRRPELLDACADLINDQWPRSRTSRLHSLGQSSDAFPLCLMLLSPHPTLEAAPVVVGHARLSRVLNQPQSLLVETVVVARALRGRGFGRRLMEGLEVFARARGFRKLHLTTHDQVHFYTHLGYQLGEPVQGLVFTSRRLPATLLNAFPTAPSPRPPRKAPNLTAQAAPRGPKGPPLPPPPPLPECLTISPPVPSGPPSKSLLETQYQNVRGRPIFWMEKDI
product formation, fold higher compared to the second best substrate MDDD24 (MDEL24): a 5-fold higher product formation compared to the second best substrate, MDDD24 | substrate ranking by product formation (MDDD24): the second best substrate, MDDD24 | substrate ranking by product formation (DDDI24): its cellular substrate, processed β-actin, DDDI24 (SEQ ID NO: 41) ranked third
